# Laboratory results: US8703158B2, “Theobromine for the treatment of cough” (Biocopea Limited, priority 2009, dated 2014)
# Assays:
# [1] = observations of behaviour and health of dosed animals; settings: codeine 25 mg/kg i.p.; reduction in movement in exposure chamber
# Method: Guinea pigs were dosed intra-tracheally with theobromine or vehicle, orally with theobromine and intra-peronteneally with codeine. All pre-treatments were administered at t−30 min prior to citric acid exposure.
# [2] = tested on: citric acid-induced cough responses; assay: citric acid-induced cough in guinea pigs (antitussive activity); type: in vivo, guinea pig; settings: for mean number of citric acid-induced coughs / onset time to the first cough: 0.5 h pretreatment; for mean number of citric acid-induced coughs: vehicle 26±4
# Method: The aim of this Example is to provide an assessment of the antitussive activity of intra-tracheally (i.t.) or orally dosed (p.o.) administered theobromine (3-30 mg/kg) compared to the positive control codeine (25 mg/kg, i.p.) against irritant-induced cough responses.
# Thirty-six guinea pigs were randomly allocated to one of the six treatment groups (see Table 1) according to the blinding code.
compound,measurement,setting,value
COc1ccc2c3c1O[C@H]1[C@@H](O)C=C[C@H]4[C@@H](C2)N(C)CC[C@@]341 [codeine],behaviour of the animals (sedation),[1],slight sedation
same,mean number of citric acid-induced coughs,"[2]; codeine 25 mg/kg i.p., citric acid 1 M, 10 min exposure + 5 min recovery",5±1 coughs
same,onset time to the first cough,"[2]; codeine 25 mg/kg i.p., vehicle 71±26 s",337 ± 51 s
Cn1cnc2c1c(=O)[nH]c(=O)n2C [theobromine],"inhaled dose giving equivalent anti-tussive effect, as fraction of the oral dose","[2]; citric acid-induced cough model, inhaled (i.t.) versus oral",⅓
same,mean number of citric acid-induced coughs,[2]; theobromine 10 mg/kg i.t.,10.33±2 coughs
same,onset time to the first cough,"[2]; theobromine 30 mg/kg p.o., versus vehicle control (71±26 s)",not significantly increased
same,effect on the total number of coughs,"[2]; theobromine 3-30 mg/kg i.t., local administration",significant dose-dependant effect
